Experimental data from US20260042764A1, “COMPOSITIONS AND METHODS FOR INHIBITION OF KRAS” (TheRas, Inc., priority 2022, published 2026).

molecular target: T1, Avi-KRAS G12D (2-169) GTP/RAF1 RBD-3xFLAG (51-131) (Homo sapiens, UniProt P01116, G12D); test: Raf1-KRAS G12D-GTP disruption HTRF assay (Biological Example 3); format: binding; conditions: KRAS G12D, GTP-loaded
T1 construct: Avi-KRAS G12D (2-169)
In short: (§1)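 50 nM Avi-KRAS (2-169) GTP/RAF1 RBD complex; 75 nM RBD-Avi; pH 7.5 Tris buffer, 10% DMSO; cpd 30 μM top, 3x, 10 pts; 1 h RT, 700 rpm; HTRF, % of DMSO.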

T1 sequence (P01116 2-169 isoform P01116-2 G12D): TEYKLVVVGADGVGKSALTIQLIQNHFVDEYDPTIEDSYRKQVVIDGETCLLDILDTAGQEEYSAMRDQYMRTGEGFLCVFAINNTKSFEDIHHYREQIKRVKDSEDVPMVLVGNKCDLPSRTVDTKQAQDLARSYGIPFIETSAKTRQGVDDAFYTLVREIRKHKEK

Q: With `CCN(c1nc(OC[C@@]23CCCN2C[C@H](F)C3)nc2c(F)c(-c3ccc(F)c4sc(N)c(C#N)c34)c(C(F)(F)F)cc12)[C@H]1CCN(C(=O)OC2CC(OC)C2)[C@@H]1C` (stereo partly drawn) [Compound 897] as the compound, how does the IC50 read?
A: Its IC50 is 100 to 1000 nM.

Q: `CCN(c1nc(OC[C@@]23CCCN2C[C@H](F)C3)nc2c(F)c(-c3ccc(F)c4sc(N)c(C#N)c34)c(C(F)(F)F)cc12)C1CCN(C(=O)C2CC2)C1` (stereo partly drawn) [Compound 903] was tested. Which IC50 did it give?
A: The IC50 was at most 100 nM.

Q: For `CCN(c1nc(OC[C@@]23CCCN2C[C@H](F)C3)nc2c(F)c(-c3ccc(F)c4sc(N)c(C#N)c34)c(C(F)(F)F)cc12)[C@H]1C[C@H](C)N(C(=O)OC2CC(OC)C2)C1` (stereo partly drawn) [Compound 907], which IC50 is on record?
A: The IC50 was 100 to 1000 nM.

Q: How did the IC50 turn out when `CN(Cc1cnco1)c1nc(OC[C@@]23CCCN2C[C@H](F)C3)nc2c(F)c(-c3ccc(F)c4sc(N)c(C#N)c34)c(C(F)(F)F)cc12` [Compound 908] was run?
A: The IC50 was 100 to 1000 nM.

Q: Which IC50 does the source give for `CCN(c1nc(OC[C@@]23CCCN2C[C@H](F)C3)nc2c(F)c(-c3ccc(F)c4sc(N)c(C#N)c34)c(C(F)(F)F)cc12)C1C[C@H](C)N(C(=O)C2CC2)C1` (stereo partly drawn) [Compound 909] here?
A: Its IC50 is 100 to 1000 nM.

molecular target: T2, Avi-KRAS G12C (2-169) GTP/RAF1 RBD-3xFLAG (51-131) (Homo sapiens, UniProt P01116, G12C); test: Raf1-KRAS G12C-GTP disruption HTRF assay (Biological Example 3); format: binding; conditions: KRAS G12C, GTP-loaded
T2 construct: Avi-KRAS G12C (2-169)
In short: as §1

T2 sequence (P01116 2-169 isoform P01116-2 G12C): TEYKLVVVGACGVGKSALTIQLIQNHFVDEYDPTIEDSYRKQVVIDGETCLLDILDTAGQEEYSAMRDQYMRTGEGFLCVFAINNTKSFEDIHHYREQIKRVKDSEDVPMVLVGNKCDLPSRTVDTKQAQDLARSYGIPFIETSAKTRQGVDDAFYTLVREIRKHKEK

Q: For `CCN(c1nc(OC[C@@]23CCCN2C[C@H](F)C3)nc2c(F)c(-c3ccc(F)c4sc(N)c(C#N)c34)c(C(F)(F)F)cc12)[C@H]1CCN(C(=O)OC2CC(OC)C2)[C@@H]1C` (stereo partly drawn) [Compound 897], which IC50 is on record?
A: Its IC50 is 100 to 1000 nM.

Q: `CCN(c1nc(OC[C@@]23CCCN2C[C@H](F)C3)nc2c(F)c(-c3ccc(F)c4sc(N)c(C#N)c34)c(C(F)(F)F)cc12)C1CCN(C(=O)C2CC2)C1` (stereo partly drawn) [Compound 903] was tested. Which IC50 did it give?
A: The IC50 was at most 100 nM.

Q: For `CCN(c1nc(OC[C@@]23CCCN2C[C@H](F)C3)nc2c(F)c(-c3ccc(F)c4sc(N)c(C#N)c34)c(C(F)(F)F)cc12)[C@H]1C[C@H](C)N(C(=O)OC2CC(OC)C2)C1` (stereo partly drawn) [Compound 907], which IC50 is on record?
A: Its IC50 is 100 to 1000 nM.

Q: How did the IC50 turn out when `CN(Cc1cnco1)c1nc(OC[C@@]23CCCN2C[C@H](F)C3)nc2c(F)c(-c3ccc(F)c4sc(N)c(C#N)c34)c(C(F)(F)F)cc12` [Compound 908] was run?
A: Its IC50 is 1000 to 10000 nM.

Q: How did the IC50 turn out when `CCN(c1nc(OC[C@@]23CCCN2C[C@H](F)C3)nc2c(F)c(-c3ccc(F)c4sc(N)c(C#N)c34)c(C(F)(F)F)cc12)C1C[C@H](C)N(C(=O)C2CC2)C1` (stereo partly drawn) [Compound 909] was run?
A: Its IC50 is 100 to 1000 nM.

molecular target: T3, Avi-KRAS WT (2-169) GTP/RAF1 RBD-3xFLAG (51-131) (Homo sapiens, UniProt P01116); test: Raf1-KRAS WT-GTP disruption HTRF assay (Biological Example 3); format: binding; conditions: KRAS WT, GTP-loaded
T3 construct: Avi-KRAS WT (2-169)
In short: as §1

T3 sequence (P01116 2-169 isoform P01116-2): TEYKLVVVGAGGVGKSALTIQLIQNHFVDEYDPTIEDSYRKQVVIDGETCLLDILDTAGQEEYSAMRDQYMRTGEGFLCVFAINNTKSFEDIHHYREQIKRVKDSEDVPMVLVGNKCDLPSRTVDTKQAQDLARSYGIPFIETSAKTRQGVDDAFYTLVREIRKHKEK

Q: How did the IC50 turn out when `CCN(c1nc(OC[C@@]23CCCN2C[C@H](F)C3)nc2c(F)c(-c3ccc(F)c4sc(N)c(C#N)c34)c(C(F)(F)F)cc12)[C@H]1CCN(C(=O)OC2CC(OC)C2)[C@@H]1C` (stereo partly drawn) [Compound 897] was run?
A: Its IC50 is 100 to 1000 nM.

Q: With `CCN(c1nc(OC[C@@]23CCCN2C[C@H](F)C3)nc2c(F)c(-c3ccc(F)c4sc(N)c(C#N)c34)c(C(F)(F)F)cc12)C1CCN(C(=O)C2CC2)C1` (stereo partly drawn) [Compound 903] as the compound, how does the IC50 read?
A: Its IC50 is 100 to 1000 nM.

Q: `CCN(c1nc(OC[C@@]23CCCN2C[C@H](F)C3)nc2c(F)c(-c3ccc(F)c4sc(N)c(C#N)c34)c(C(F)(F)F)cc12)[C@H]1C[C@H](C)N(C(=O)OC2CC(OC)C2)C1` (stereo partly drawn) [Compound 907] was tested. Which IC50 did it give?
A: Its IC50 is 100 to 1000 nM.

Q: `CN(Cc1cnco1)c1nc(OC[C@@]23CCCN2C[C@H](F)C3)nc2c(F)c(-c3ccc(F)c4sc(N)c(C#N)c34)c(C(F)(F)F)cc12` [Compound 908] was tested. Which IC50 did it give?
A: The IC50 was 1000 to 10000 nM.

Q: How did the IC50 turn out when `CCN(c1nc(OC[C@@]23CCCN2C[C@H](F)C3)nc2c(F)c(-c3ccc(F)c4sc(N)c(C#N)c34)c(C(F)(F)F)cc12)C1C[C@H](C)N(C(=O)C2CC2)C1` (stereo partly drawn) [Compound 909] was run?
A: Its IC50 is 100 to 1000 nM.

molecular target: T4, Avi-KRAS G12V (2-169) GTP/RAF1 RBD-3xFLAG (51-131) (Homo sapiens, UniProt P01116, G12V); test: Raf1-KRAS G12V-GTP disruption HTRF assay (Biological Example 3); format: binding; conditions: KRAS G12V, GTP-loaded
T4 construct: Avi-KRAS G12V (2-169)
In short: as §1

T4 sequence (P01116 2-169 isoform P01116-2 G12V): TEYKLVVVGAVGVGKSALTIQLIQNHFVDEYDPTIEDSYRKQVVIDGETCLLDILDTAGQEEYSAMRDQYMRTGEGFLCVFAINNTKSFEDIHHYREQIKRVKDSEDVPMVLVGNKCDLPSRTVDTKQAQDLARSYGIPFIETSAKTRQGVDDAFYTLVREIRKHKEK

Q: For `CCN(c1nc(OC[C@@]23CCCN2C[C@H](F)C3)nc2c(F)c(-c3ccc(F)c4sc(N)c(C#N)c34)c(C(F)(F)F)cc12)[C@H]1CCN(C(=O)OC2CC(OC)C2)[C@@H]1C` (stereo partly drawn) [Compound 897], which IC50 is on record?
A: Its IC50 is 100 to 1000 nM.

Q: How did the IC50 turn out when `CCN(c1nc(OC[C@@]23CCCN2C[C@H](F)C3)nc2c(F)c(-c3ccc(F)c4sc(N)c(C#N)c34)c(C(F)(F)F)cc12)C1CCN(C(=O)C2CC2)C1` (stereo partly drawn) [Compound 903] was run?
A: Its IC50 is at most 100 nM.

Q: For `CCN(c1nc(OC[C@@]23CCCN2C[C@H](F)C3)nc2c(F)c(-c3ccc(F)c4sc(N)c(C#N)c34)c(C(F)(F)F)cc12)[C@H]1C[C@H](C)N(C(=O)OC2CC(OC)C2)C1` (stereo partly drawn) [Compound 907], which IC50 is on record?
A: The IC50 was 100 to 1000 nM.

Q: Which IC50 does the source give for `CN(Cc1cnco1)c1nc(OC[C@@]23CCCN2C[C@H](F)C3)nc2c(F)c(-c3ccc(F)c4sc(N)c(C#N)c34)c(C(F)(F)F)cc12` [Compound 908] here?
A: The IC50 was 1000 to 10000 nM.

Q: For `CCN(c1nc(OC[C@@]23CCCN2C[C@H](F)C3)nc2c(F)c(-c3ccc(F)c4sc(N)c(C#N)c34)c(C(F)(F)F)cc12)C1C[C@H](C)N(C(=O)C2CC2)C1` (stereo partly drawn) [Compound 909], which IC50 is on record?
A: Its IC50 is 100 to 1000 nM.

test system: GP2d cells (KRAS G12D); test: Cell-based pERK HTRF assay in GP2d cell (Biological Example 2); conditions: GP2d (KRAS G12D) cells
In short: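 Treatment with test compounds lasted one hour in DMEM containing 10% FBS, with DMSO held at 0.25%. Dilution series: 9 points, half-log spacing, highest 1 μM or 100 nM. Lysates were incubated 4–24 h at room temperature with antibody mix, then HTRF was read at 320 nm excitation.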

Q: `CCN(c1nc(OC[C@@]23CCCN2C[C@H](F)C3)nc2c(F)c(-c3ccc(F)c4sc(N)c(C#N)c34)c(C(F)(F)F)cc12)C1C[C@H](C)N(C(=O)C2CC2)C1` (stereo partly drawn) [Compound 909] was tested. Which IC50 did it give?
A: Its IC50 is under 100 nM.

same assay, conditions: GP2d, GP2d (KRAS G12D) cells

Q: `CCN(c1nc(OC[C@@]23CCCN2C[C@H](F)C3)nc2c(F)c(-c3ccc(F)c4sc(N)c(C#N)c34)c(C(F)(F)F)cc12)[C@H]1CCN(C(=O)OC2CC(OC)C2)[C@@H]1C` (stereo partly drawn) [Compound 897] was tested. Which IC50 did it give?
A: The IC50 was under 100 nM.

Q: Which IC50 does the source give for `CCN(c1nc(OC[C@@]23CCCN2C[C@H](F)C3)nc2c(F)c(-c3ccc(F)c4sc(N)c(C#N)c34)c(C(F)(F)F)cc12)C1CCN(C(=O)C2CC2)C1` (stereo partly drawn) [Compound 903] here?
A: The IC50 was under 100 nM.

Q: With `CCN(c1nc(OC[C@@]23CCCN2C[C@H](F)C3)nc2c(F)c(-c3ccc(F)c4sc(N)c(C#N)c34)c(C(F)(F)F)cc12)[C@H]1C[C@H](C)N(C(=O)OC2CC(OC)C2)C1` (stereo partly drawn) [Compound 907] as the compound, how does the IC50 read?
A: The IC50 was under 100 nM.

Q: How did the IC50 turn out when `CN(Cc1cnco1)c1nc(OC[C@@]23CCCN2C[C@H](F)C3)nc2c(F)c(-c3ccc(F)c4sc(N)c(C#N)c34)c(C(F)(F)F)cc12` [Compound 908] was run?
A: The IC50 was under 100 nM.

test system: SW620 cells (KRAS G12V); test: Cell-based pERK HTRF assay in SW620 cell (Biological Example 4); conditions: Homo sapiens, SW-620, SW620 (KRAS G12V) cells
In short: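 SW620 cells were treated for 4 h with compound in a 9-point half-log series from 1 μM top (0.25% DMSO), then lysed. Phospho-ERK was detected by HTRF with d2 and Eu cryptate antibodies after 4–24 h at room temperature, read at 615 nm emission.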

Q: With `CCN(c1nc(OC[C@@]23CCCN2C[C@H](F)C3)nc2c(F)c(-c3ccc(F)c4sc(N)c(C#N)c34)c(C(F)(F)F)cc12)[C@H]1CCN(C(=O)OC2CC(OC)C2)[C@@H]1C` (stereo partly drawn) [Compound 897] as the compound, how does the IC50 read?
A: Its IC50 is under 100 nM.

Q: For `CCN(c1nc(OC[C@@]23CCCN2C[C@H](F)C3)nc2c(F)c(-c3ccc(F)c4sc(N)c(C#N)c34)c(C(F)(F)F)cc12)C1CCN(C(=O)C2CC2)C1` (stereo partly drawn) [Compound 903], which IC50 is on record?
A: Its IC50 is under 100 nM.

Q: Which IC50 does the source give for `CCN(c1nc(OC[C@@]23CCCN2C[C@H](F)C3)nc2c(F)c(-c3ccc(F)c4sc(N)c(C#N)c34)c(C(F)(F)F)cc12)[C@H]1C[C@H](C)N(C(=O)OC2CC(OC)C2)C1` (stereo partly drawn) [Compound 907] here?
A: The IC50 was under 100 nM.

Q: How did the IC50 turn out when `CN(Cc1cnco1)c1nc(OC[C@@]23CCCN2C[C@H](F)C3)nc2c(F)c(-c3ccc(F)c4sc(N)c(C#N)c34)c(C(F)(F)F)cc12` [Compound 908] was run?
A: Its IC50 is under 100 nM.

same assay, conditions: SW620 (KRAS G12V) cells

Q: With `CCN(c1nc(OC[C@@]23CCCN2C[C@H](F)C3)nc2c(F)c(-c3ccc(F)c4sc(N)c(C#N)c34)c(C(F)(F)F)cc12)C1C[C@H](C)N(C(=O)C2CC2)C1` (stereo partly drawn) [Compound 909] as the compound, how does the IC50 read?
A: Its IC50 is under 100 nM.
